From the supplement of paper PMC11061612

Tests used:
AZD7648 = compound: Cc1cc2ncnn2cc1Nc1ncc2c(n1)n(C1CCOCC1)c(=O)n2C [AZD7648]; conditions: max 10 µM
Procedure, shortened: (§1)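 After 24 hours at 37°C and 5% CO2 in 1536-well plates holding 7.5 μl of DMEM/F12 or RPMI with 10% FBS, cancer cell lines were dosed for 72 hours, with final DMSO typically 0.2%. Viability came from CellTiter-Glo 2.0 luminescence, scaled between the means of blank wells and DMSO wells. A non-linear mixed effects model fitted a two-parameter logistic curve to each dose response to give the single-agent IC50.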

AZD5991 = compound: Cc1c2c(nn1C)CSCc1cc(n(C)n1)CSc1cc(c3ccccc3c1)OCCCc1c(C(=O)O)n(C)c3c-2c(Cl)ccc13 [AZD5991]; conditions: max 1 µM
Procedure, shortened: as §1

Olaparib = compound: O=C(c1cc(Cc2n[nH]c(=O)c3ccccc23)ccc1F)N1CCN(C(=O)C2CC2)CC1 [Olaparib]; conditions: max 10 µM
Procedure, shortened: as §1

Dasatinib = compound: CC1=C(C(=CC=C1)Cl)NC(=O)C2=CN=C(S2)NC3=CC(=NC(=N3)C)N4CCN(CC4)CCO [Dasatinib]; conditions: max 2 µM
Procedure, shortened: as §1

Venetoclax = compound: CC1(C)CCC(CN2CCN(c3ccc(C(=O)NS(=O)(=O)c4ccc(NCC5CCOCC5)c([N+](=O)[O-])c4)c(Oc4cnc5[nH]ccc5c4)c3)CC2)=C(c2ccc(Cl)cc2)C1 [Venetoclax]; conditions: max 1 µM
Procedure, shortened: as §1

AZD1775 = compound: C=CCn1c(=O)c2cnc(Nc3ccc(N4CCN(C)CC4)cc3)nc2n1-c1cccc(C(C)(C)O)n1 [AZD1775]; conditions: max 3 µM
Procedure, shortened: as §1

Trametinib = compound: CC(=O)Nc1cccc(-n2c(=O)n(C3CC3)c(=O)c3c(Nc4ccc(I)cc4F)n(C)c(=O)c(C)c32)c1 [Trametinib]; conditions: max 1 µM
Procedure, shortened: as §1

AZD6738 = compound: C[C@@H]1COCCN1C2=NC(=NC(=C2)C3(CC3)[S@](=N)(=O)C)C4=C5C=CNC5=NC=C4 [AZD6738]; conditions: max 10 µM
Procedure, shortened: as §1

AZD8186 = compound: C[C@@H](Nc1cc(F)cc(F)c1)c1cc(C(=O)N(C)C)cc2c(=O)cc(N3CCOCC3)oc12 [AZD8186]; conditions: max 3 µM
Procedure, shortened: as §1

AZD2811 = compound: CCN(CCO)CCCOc1ccc2c(Nc3cc(CC(=O)Nc4cccc(F)c4)[nH]n3)ncnc2c1 [AZD2811]; conditions: max 1 µM
Procedure, shortened: as §1

Alisertib = compound: COc1cc(Nc2ncc3c(n2)-c2ccc(Cl)cc2C(c2c(F)cccc2OC)=NC3)ccc1C(=O)O [Alisertib]; conditions: max 10 µM
Procedure, shortened: as §1

Palbociclib = compound: CC(=O)c1c(C)c2cnc(Nc3ccc(N4CCNCC4)cn3)nc2n(C2CCCC2)c1=O [Palbociclib]; conditions: max 10 µM
Procedure, shortened: as §1

Capivasertib = compound: C1CN(CCC1(C(=O)N[C@@H](CCO)C2=CC=C(C=C2)Cl)N)C3=NC=NC4=C3C=CN4 [Capivasertib]
Procedure, shortened: as §1

SN-38 = compound: CCc1c2c(nc3ccc(O)cc13)-c1cc3c(c(=O)n1C2)COC(=O)[C@]3(O)CC [SN-38]; conditions: max 0.3 µM
Procedure, shortened: as §1

Crizotinib = compound: C[C@@H](Oc1cc(-c2cnn(C3CCNCC3)c2)cnc1N)c1c(Cl)ccc(F)c1Cl [Crizotinib]; conditions: max 10 µM
Procedure, shortened: as §1

Taselisib = compound: Cc1nc(-c2cn3c(n2)-c2ccc(-c4cnn(C(C)(C)C(N)=O)c4)cc2OCC3)n(C(C)C)n1 [Taselisib]; conditions: max 10 µM
Procedure, shortened: as §1

SG3199 = compound: CC1=CN2[C@@H](C1)C=NC3=CC(=C(C=C3C2=O)OC)OCCCCCOC4=C(C=C5C(=C4)N=C[C@@H]6CC(=CN6C5=O)C)OC [SG3199]; conditions: max 0.001 µM
Procedure, shortened: as §1

Selumetinib = compound: Cn1cnc2c(F)c(Nc3ccc(Br)cc3Cl)c(C(=O)NOCCO)cc21 [Selumetinib]
Procedure, shortened: as §1

AZD1390 = compound: CC(C)n1c(=O)n(C)c2cnc3cc(F)c(-c4ccc(OCCCN5CCCCC5)nc4)cc3c21 [AZD1390]; conditions: max 0.3 µM
Procedure, shortened: as §1

AZD0156 = compound: CN(C)CCCOc1ccc(-c2ccc3ncc4c(c3c2)n(C2CCOCC2)c(=O)n4C)cn1 [AZD0156]; conditions: max 3 µM
Procedure, shortened: as §1

AZD5153 = compound: COc1nnc2ccc(N3CCC(c4ccc(OCCN5CCN(C)C(=O)[C@H]5C)cc4)CC3)nn12 [AZD5153]; conditions: max 1 µM
Procedure, shortened: as §1

Gefitinib = compound: COc1cc2ncnc(Nc3ccc(F)c(Cl)c3)c2cc1OCCCN1CCOCC1 [Gefitinib]; conditions: max 10 µM
Procedure, shortened: as §1

Lapatinib = compound: CS(=O)(=O)CCNCc1ccc(-c2ccc3ncnc(Nc4ccc(OCc5cccc(F)c5)c(Cl)c4)c3c2)o1 [Lapatinib]; conditions: max 10 µM
Procedure, shortened: as §1

Savolitinib = compound: C[C@@H](c1ccc2nccn2c1)n1nnc2ncc(-c3cnn(C)c3)nc21 [Savolitinib]; conditions: max 1 µM
Procedure, shortened: as §1

Doxorubicin = compound: COc1cccc2c1C(=O)c1c(O)c3c(c(O)c1C2=O)C[C@@](O)(C(=O)CO)C[C@@H]3O[C@H]1C[C@H](N)[C@H](O)[C@H](C)O1 [Doxorubicin]; conditions: max 1 µM
Procedure, shortened: as §1

AZD4320 = compound: CN(CC[C@H](CSC1=CC=CC=C1)NC2=C(C=C(C=C2)S(=O)(=O)NC(=O)C3=CC=C(C=C3)N4CCC(CC4)[C@H](C5=CC=CC=C5C6=CC=C(C=C6)Cl)O)S(=O)(=O)C(F)(F)F)CCO [AZD4320]; conditions: max 1 µM
Procedure, shortened: as §1

Prexasertib = compound: COc1cccc(OCCCN)c1-c1cc(Nc2cnc(C#N)cn2)n[nH]1 [Prexasertib]; conditions: max 1 µM
Procedure, shortened: as §1

MHH-PREB-1 (B-Cell Non-Hodgkin's Lymphoma)
IC50, cell viability 72 h (AZD7648): > 10000 nM | IC50, cell viability 72 h (AZD5991): > 1000 nM | IC50, cell viability 72 h (Olaparib): > 10000 nM | IC50, cell viability 72 h (Dasatinib): > 2000 nM | IC50, cell viability 72 h (Venetoclax): > 1000 nM | IC50, cell viability 72 h (AZD1775): 935 nM | IC50, cell viability 72 h (Trametinib): > 1000 nM | IC50, cell viability 72 h (AZD6738): 2080 nM | IC50, cell viability 72 h (AZD8186): > 3000 nM | IC50, cell viability 72 h (AZD2811): > 1000 nM | IC50, cell viability 72 h (Alisertib): > 10000 nM | IC50, cell viability 72 h (Palbociclib): > 10000 nM | IC50, cell viability 72 h (Capivasertib; max 10 µM): > 10000 nM | IC50, cell viability 72 h (SN-38): 58.4 nM | IC50, cell viability 72 h (Crizotinib): 8080 nM | IC50, cell viability 72 h (Taselisib): > 10000 nM | IC50, cell viability 72 h (SG3199): > 1 nM | IC50, cell viability 72 h (Selumetinib; max 10 µM): > 10000 nM | IC50, cell viability 72 h (AZD1390): > 300 nM | IC50, cell viability 72 h (AZD0156): > 3000 nM | IC50, cell viability 72 h (AZD5153): 756 nM | IC50, cell viability 72 h (Gefitinib): > 10000 nM | IC50, cell viability 72 h (Lapatinib): > 10000 nM | IC50, cell viability 72 h (Savolitinib): > 1000 nM | IC50, cell viability 72 h (Doxorubicin): 317 nM | IC50, cell viability 72 h (AZD4320): > 1000 nM | IC50, cell viability 72 h (Prexasertib): 8.91 nM

OVCAR-8 (Ovarian Carcinoma)
IC50, cell viability 72 h (AZD7648): > 10000 nM | IC50, cell viability 72 h (AZD5991): > 1000 nM | IC50, cell viability 72 h (Olaparib): > 10000 nM | IC50, cell viability 72 h (Dasatinib): 1540 nM | IC50, cell viability 72 h (Venetoclax): > 1000 nM | IC50, cell viability 72 h (AZD1775): 1370 nM | IC50, cell viability 72 h (Trametinib): > 1000 nM | IC50, cell viability 72 h (AZD6738): 6140 nM | IC50, cell viability 72 h (AZD8186): > 3000 nM | IC50, cell viability 72 h (AZD2811): > 1000 nM | IC50, cell viability 72 h (Alisertib): 7630 nM | IC50, cell viability 72 h (Palbociclib): > 10000 nM | IC50, cell viability 72 h (Capivasertib; max 10 µM): > 10000 nM | IC50, cell viability 72 h (SN-38): 18.7 nM | IC50, cell viability 72 h (Crizotinib): > 10000 nM | IC50, cell viability 72 h (Taselisib): > 10000 nM | IC50, cell viability 72 h (SG3199): > 1 nM | IC50, cell viability 72 h (Selumetinib; max 10 µM): > 10000 nM | IC50, cell viability 72 h (AZD1390): > 300 nM | IC50, cell viability 72 h (AZD0156): > 3000 nM | IC50, cell viability 72 h (AZD5153): 198 nM | IC50, cell viability 72 h (Gefitinib): > 10000 nM | IC50, cell viability 72 h (Lapatinib): > 10000 nM | IC50, cell viability 72 h (Savolitinib): > 1000 nM | IC50, cell viability 72 h (Doxorubicin): 257 nM | IC50, cell viability 72 h (AZD4320): > 1000 nM | IC50, cell viability 72 h (Prexasertib): 13.4 nM

SIMA (Neuroblastoma)
IC50, cell viability 72 h (AZD7648): > 10000 nM | IC50, cell viability 72 h (AZD5991): > 1000 nM | IC50, cell viability 72 h (Olaparib): > 10000 nM | IC50, cell viability 72 h (Venetoclax): > 1000 nM | IC50, cell viability 72 h (AZD1775): 211 nM | IC50, cell viability 72 h (AZD6738): 2350 nM | IC50, cell viability 72 h (AZD8186): > 3000 nM | IC50, cell viability 72 h (AZD2811): > 1000 nM | IC50, cell viability 72 h (Capivasertib; max 3 µM): > 3000 nM | IC50, cell viability 72 h (SN-38): 3.66 nM | IC50, cell viability 72 h (SG3199): > 1 nM | IC50, cell viability 72 h (Selumetinib; max 3 µM): > 3000 nM | IC50, cell viability 72 h (AZD0156): > 3000 nM | IC50, cell viability 72 h (Doxorubicin): 706 nM | IC50, cell viability 72 h (AZD4320): 299 nM | IC50, cell viability 72 h (Prexasertib): 7.67 nM
